Legend:
Details in all cases: 72 h
Vero E6 [1] = test: drug sensitivity score (DSS) for viability; higher = more toxic; extreme values may be limits of the assay
Calu-3 [2] = test: as above
HepG2 [3] = test: as above
Caco-2 [4] = test: as above
U2OS [5] = test: as above
Vero E6 [6] = test: relative viability EC50 (midpoint between 100% and the lowest measured viability); higher = less toxic
Calu-3 [7] = test: as above
HepG2 [8] = test: as above
U2OS [9] = test: as above
Vero E6 [10] = test: cell viability relative to DMSO; higher = less toxic
Calu-3 [11] = test: as above
HepG2 [12] = test: as above
Caco-2 [13] = test: as above
U2OS [14] = test: as above

Compound | drug sensitivity score (Vero E6 [1]) | drug sensitivity score (Calu-3 [2]) | drug sensitivity score (HepG2 [3]) | drug sensitivity score (Caco-2 [4]) | drug sensitivity score (U2OS [5]) | relative viability EC50 (Vero E6 [6]) [µM] | relative viability EC50 (Calu-3 [7]) [µM] | relative viability EC50 (HepG2 [8]) [µM] | relative viability EC50 (U2OS [9]) [µM] | cell viability (Vero E6 [10]; 1 nM) [%] | cell viability (Vero E6 [10]; 10 nM) [%] | cell viability (Vero E6 [10]; 100 nM) [%] | cell viability (Vero E6 [10]; 1000 nM) [%] | cell viability (Vero E6 [10]; 10000 nM) [%] | cell viability (Calu-3 [11]; 1 nM) [%] | cell viability (Calu-3 [11]; 10 nM) [%] | cell viability (Calu-3 [11]; 100 nM) [%] | cell viability (Calu-3 [11]; 1000 nM) [%] | cell viability (Calu-3 [11]; 10000 nM) [%] | cell viability (HepG2 [12]; 1 nM) [%] | cell viability (HepG2 [12]; 10 nM) [%] | cell viability (HepG2 [12]; 100 nM) [%] | cell viability (HepG2 [12]; 1000 nM) [%] | cell viability (HepG2 [12]; 10000 nM) [%] | cell viability (Caco-2 [13]; 1 nM) [%] | cell viability (Caco-2 [13]; 10 nM) [%] | cell viability (Caco-2 [13]; 100 nM) [%] | cell viability (Caco-2 [13]; 1000 nM) [%] | cell viability (Caco-2 [13]; 10000 nM) [%] | cell viability (U2OS [14]; 1 nM) [%] | cell viability (U2OS [14]; 10 nM) [%] | cell viability (U2OS [14]; 100 nM) [%] | cell viability (U2OS [14]; 1000 nM) [%] | cell viability (U2OS [14]; 10000 nM) [%]
CCOC(=O)Nc1cc(-c2ccc(C)c(NS(C)(=O)=O)c2)nn2c(C)nnc12 [bromosporine] | 10.4 | 7.9 | 9.4 | 4.8 | 7.6 | 1.05 | 0.624 | 1.02 | 1.57 | 95.7 | 101 | 94.7 | 55.5 | 6.3 | 96.8 | 88 | 80.4 | 76.3 | 37.8 | 101 | 98.9 | 102 | 60.8 | 19.5 | 95.5 | 101 | 104 | 81.3 | 55.8 | 96.2 | 99.2 | 91.5 | 79.2 | 18.5
CCCCN(CCCC)CCCOC(=O)c1ccc(N)cc1 [butacaine] | 0 | 0 | 0 | 0.9 | 0 | > 10 | > 10 | > 10 | > 10 | 102 | 90.8 | 99.1 | 92.9 | 92.7 | 95.9 | 95.3 | 106 | 86.8 | 94.9 | 108 | 93 | 102 | 85.2 | 95.7 | 92.7 | 98.5 | 91.3 | 128 | 65.7 | 92.5 | 99.3 | 95.1 | 102 | 101
CN1CCN(C(c2ccccc2)c2ccc(Cl)cc2)CC1 (stereo unspecified) [chlorcyclizine] | 0 | 0.1 | 0 | 0.9 | 0 | > 10 | > 10 | > 10 | > 10 | 105 | 97.3 | 103 | 101 | 92.6 | 102 | 103 | 96.4 | 98.3 | 88.1 | 97.6 | 90.4 | 95.8 | 91.7 | 87.9 | 107 | 104 | 79.4 | 105 | 71.7 | 93.8 | 103 | 99 | 106 | 88.8
O=C(O)c1cc(-c2ccccc2)nc2ccccc12 [cinchophen] | 0 | 0 | 0.2 |  | 0 |  |  |  |  |  |  |  |  |  |  |  |  |  |  |  |  |  |  |  |  |  |  |  |  |  |  |  |  | 

From the supplement of paper PMC13380429
